Assay results: patent US20100172889A1, “DEGRADABLE BIOMOLECULE COMPOSITIONS” (priority 2008, published 2010)

Test system: cellulase C
Settings: PHMB present in lyophilized cellulose film with cellulase C
Procedure: Two test materials (A and B) were prepared. Material A is a lyophilized cellulose film with cellulase C, and material B is a lyophilized cellulose film with cellulase C plus antiseptic Polyhexamethylene Biguanide (PHMB). Lyophilized cellulose samples A and B were incubated under conditions 1 and 2 for one month. Using media of tryptic soy agar, the samples were put in the solution to perform enzymatic degradation. On the 2nd, 8th, and 14th day, the degrading solution was taken out and plated on the agar media. The agar media plates were incubated for one month according to condition 3.

Polyhexamethylene Biguanide [PHMB]
reduction in cellulase enzyme activity: no observable reduction in cellulase enzyme activity
